Results as given in patent publication US20230346281A1, “Fully Printed Electrode Biological Interface” (Early Charm Ventures, priority 2022, published 2023).

Test system: HepG2 hepatocytes tissue layers
Assay: Live cell viability / CEIS recordings in the presence of a cytotoxic agent (EtOH)
Type: cell-based, human
Conditions: 12 hour exposure to EtOH (70% final); HEPG2 2 million cells/mL with PEG-PLL (1:10) hydrogel
Method: A toxicological agent, Ethanol (EtOH) was used as a clinically relevant cytotoxic agent for the HepG2 hepatocytes tissue layers, HEPG2 (2 million cells/mL) with PEG-PLL (1:10) hydrogel. CEIS recordings were obtained at 1 hour and 24 hours post deposition with and without the cytoxic agent, Table 3. A final CEIS recording was obtained from these cells following a 12 hour exposure to EtOH (70% final). A marked increase in amplitude with additional recovery time post deposition (1 vs 24 hours).

For `CCO` [EtOH, Ethanol], the “amplitude of CEIS recordings” value was “increased the observed amplitude of CEIS recordings”.
